Data on 17 molecules can be found in patent US20240050428A1 (Cullgen (Shanghai), Inc., priority 2020, published 2024).

For assay [1], the system named is MV4;11 cells. Description: Cell viability assay (CellTiter-Glo) in MV4;11 cells, alone or with gilteritinib. Conditions: Homo sapiens, MV4-11, 72 h, read-out: MV4. The assay is classed as cell-based.
Assay [2] has as its system MOLM-13 cells. The assay can be described thus: Cell viability assay (CellTiter-Glo) in MOLM-13 cells, alone or with gilteritinib. Conditions: Homo sapiens, MOLM-13, 72 h. The assay is classed as cell-based. (In general: Cellular ATP, detected with luciferase, serves as a proxy for viable cell number.)
The mark [3] stands for this setting: MV4;11 cells, with 10 nM gilteritinib, 3 days, CellTiter-Glo, 11 IC50 gilteritinib.
The mark [4] stands for this setting: MV4;11 cells, without gilteritinib, 3 days, CellTiter-Glo, 11 IC50.
Setting [5] is: MOLM-13 cells, with 20 nM gilteritinib, 3 days, CellTiter-Glo, read-out: MOLM-13 IC50 gilteritinib.
[6] abbreviates: MOLM-13 cells, without gilteritinib, 3 days, CellTiter-Glo, read-out: MOLM-13 IC50.
Where [7] appears, read: MV4;11 cells, compound alone (without gilteritinib), three days, CellTiter-Glo, 11 IC50.
[8] abbreviates: MV4;11 cells, with gilteritinib 10 nM, three days, CellTiter-Glo, 11 IC50 gilteritinib.
Where [9] appears, read: MOLM-13 cells, compound alone (without gilteritinib), three days, CellTiter-Glo, read-out: MOLM-13 IC50.
The mark [10] stands for this setting: MOLM-13 cells, with gilteritinib 20 nM, three days, CellTiter-Glo, read-out: MOLM-13 IC50 gilteritinib.

Read-outs that look alike come from different tables or passages of the source.

Consider `O=C1CCC(N2C(=O)c3ccc(NCCCCCC(=O)N4CCN(c5ccccn5)CC4)cc3C2=O)C(=O)N1` (centres unmarked) [GS-019, 2-(2,6-Dioxopiperidin-3-yl)-5-((6-oxo-6-(4-(pyridin-2-yl)piperazin-1-yl)hexyl)amino)isoindoline-1,3-dione], for which the IC50 was found to be 0.162 µM in assay [1] (11 IC50), 0.0094 µM in assay [1] (11 IC50 gilteritinib), 0.146 µM in assay [2] (read-out: MOLM-13 IC50) and 0.007 µM in assay [2] (read-out: MOLM-13 IC50 gilteritinib).
On to `O=C1CCC(N2Cc3cc(NC(=O)CCCCC(=O)N4CCC(n5cc(-c6cnc7cccc(Br)c7n6)cn5)CC4)ccc3C2=O)C(=O)N1` (centres unmarked) [GS-020, 6-(4-(4-(8-Bromoquinoxalin-2-yl)-1H-pyrazol-1-yl)piperidin-1-yl)-N-(2-(2,6-dioxopiperidin-3-yl)-1-oxoisoindolin-5-yl)-6-oxohexanamide], for which the IC50 in assay [1] (setting [3]) was determined as 0.003 µM; in assay [1] (setting [4]) it was 0.029 µM; in assay [2] (setting [5]), 0.011 µM; in assay [2] (setting [6]) it was 0.087 µM.
Consider `O=C(CCCC(=O)N1CCC(n2cc(-c3cnc4cccc(Br)c4n3)cn2)CC1)NCc1ccc2c(c1)CN(C1CCC(=O)NC1=O)C2=O` (centres unmarked) [GS-021, 5-(4-(4-(8-Bromoquinoxalin-2-yl)-1H-pyrazol-1-yl)piperidin-1-yl)-N-((2-(2,6-dioxopiperidin-3-yl)-1-oxoisoindolin-5-yl)methyl)-5-oxopentanamide], for which the IC50 in assay [1] (setting [3]) is 0.044 µM; in assay [1] (setting [4]) it was 3.13 µM; in assay [2] (setting [5]) it was 0.111 µM; in assay [2] (setting [6]) it was 0.082 µM.
For the molecule `O=C(COc1ccc2c(c1)CN(C1CCC(=O)NC1=O)C2=O)NCCC(=O)N1CCC(n2cc(-c3cnc4cccc(Br)c4n3)cn2)CC1` (centres unmarked) [GS-022, N-(3-(4-(4-(8-bromoquinoxalin-2-yl)-1H-pyrazol-1-yl)piperidin-1-yl)-3-oxopropyl)-2-((2-(2,6-dioxopiperidin-3-yl)-1-oxoisoindolin-5-yl)oxy)acetamide], the IC50 turned out to be 0.06 µM in assay [1] (setting [3]), 0.293 µM in assay [1] (setting [4]), 0.106 µM in assay [2] (setting [5]) and 0.875 µM in assay [2] (setting [6]).
On to `O=C1CCC(N2Cc3c(Nc4ccnc(Nc5cccc(N6CCC(n7cc(-c8cnc9ccccc9n8)cn7)CC6)c5)n4)cccc3C2=O)C(=O)N1` (centres unmarked) [GS-025, 3-(1-Oxo-4-((2-((3-(4-(4-(quinoxalin-2-yl)-1H-pyrazol-1-yl)piperidin-1-yl)phenyl)amino)pyrimidin-4-yl)amino)isoindolin-2-yl)piperidine-2,6-dione], for which the IC50 in assay [1] (setting [7]) is 0.01 to 0.1 µM; in assay [1] (setting [8]) it was less than 0.01 µM; in assay [2] (setting [9]) it was less than 0.01 µM; in assay [2] (setting [10]) it was less than 0.01 µM.
Consider `O=C1CCC(N2Cc3c(Nc4ccnc(Nc5ccc(N6CCC(n7cc(-c8cnc9cccc(Br)c9n8)cn7)CC6)cc5)n4)cccc3C2=O)C(=O)N1` (centres unmarked) [GS-026, 3-(4-((2-((4-(4-(4-(8-Bromoquinoxalin-2-yl)-1H-pyrazol-1-yl)piperidin-1-yl)phenyl)amino)pyrimidin-4-yl)amino)-1-oxoisoindolin-2-yl)piperidine-2,6-dione], for which the IC50 in assay [1] (setting [7]), in assay [1] (setting [8]), in assay [2] (setting [9]) and in assay [2] (setting [10]) was greater than 1 µM throughout.
In the case of `O=C1CCC(N2Cc3c(Nc4ccnc(Nc5ccc(N6CCC(n7cc(-c8cnc9ccccc9n8)cn7)CC6)cc5)n4)cccc3C2=O)C(=O)N1` (centres unmarked) [GS-027, 3-(1-Oxo-4-((2-((4-(4-(4-(quinoxalin-2-yl)-1H-pyrazol-1-yl)piperidin-1-yl)phenyl)amino)pyrimidin-4-yl)amino)isoindolin-2-yl)piperidine-2,6-dione], the IC50 in assay [1] (setting [7]) was greater than 1 µM; in assay [1] (setting [8]), greater than 1 µM; in assay [2] (setting [9]) it was 0.1 to 1 µM; in assay [2] (setting [10]) it was greater than 1 µM.
As to `O=C1CCC(N2Cc3c(Nc4ccnc(Nc5cccc(CN6CCC(n7cc(-c8cnc9cccc(Br)c9n8)cn7)CC6)c5)n4)cccc3C2=O)C(=O)N1` (centres unmarked) [GS-028, 3-(4-((2-((3-((4-(4-(8-Bromoquinoxalin-2-yl)-1H-pyrazol-1-yl)piperidin-1-yl)methyl)phenyl)amino)pyrimidin-4-yl)amino)-1-oxoisoindolin-2-yl)piperidine-2,6-dione], the IC50 is 0.01 to 0.1 µM in assay [1] (setting [7]), 0.01 to 0.1 µM in assay [1] (setting [8]), 0.1 to 1 µM in assay [2] (setting [9]) and 0.01 to 0.1 µM in assay [2] (setting [10]).
Take `O=C1CCC(N2Cc3c(Nc4ccnc(Nc5cccc(CN6CCC(n7cc(-c8cnc9ccccc9n8)cn7)CC6)c5)n4)cccc3C2=O)C(=O)N1` (centres unmarked) [GS-029, 3-(1-Oxo-4-((2-((3-((4-(4-(quinoxalin-2-yl)-1H-pyrazol-1-yl)piperidin-1-yl)methyl)phenyl)amino)pyrimidin-4-yl)amino)isoindolin-2-yl)piperidine-2,6-dione]: the IC50 in assay [1] (setting [7]), in assay [1] (setting [8]), in assay [2] (setting [9]) and in assay [2] (setting [10]) was greater than 1 µM throughout.
With `O=C1CCC(N2Cc3c(Nc4ccnc(Nc5ccc(CN6CCC(n7cc(-c8cnc9cccc(Br)c9n8)cn7)CC6)cc5)n4)cccc3C2=O)C(=O)N1` (centres unmarked) [GS-030, 3-(4-((2-((4-((4-(4-(8-Bromoquinoxalin-2-yl)-1H-pyrazol-1-yl)piperidin-1-yl)methyl)phenyl)amino)pyrimidin-4-yl)amino)-1-oxoisoindolin-2-yl)piperidine-2,6-dione], the IC50 in assay [1] (setting [7]), in assay [1] (setting [8]), in assay [2] (setting [9]) and in assay [2] (setting [10]) was greater than 1 µM throughout.
As for `O=C1CCC(N2Cc3c(Nc4ccnc(Nc5ccc(CN6CCC(n7cc(-c8cnc9ccccc9n8)cn7)CC6)cc5)n4)cccc3C2=O)C(=O)N1` (centres unmarked) [GS-031, 3-(1-Oxo-4-((2-((4-((4-(4-(quinoxalin-2-yl)-1H-pyrazol-1-yl)piperidin-1-yl)methyl)phenyl)amino)pyrimidin-4-yl)amino)isoindolin-2-yl)piperidine-2,6-dione], the IC50 in assay [1] (setting [7]) was 0.01 to 0.1 µM; in assay [1] (setting [8]), less than 0.01 µM; in assay [2] (setting [9]) it was 0.01 to 0.1 µM; in assay [2] (setting [10]), 0.01 to 0.1 µM.
Turning to `O=C1CCC(N2C(=O)c3ccc(NCCCCCC(=O)N4CCC(n5cc(-c6cnc7cccc(N8CCOCC8)c7n6)cn5)CC4)cc3C2=O)C(=O)N1` (centres unmarked) [GS-034, 2-(2,6-Dioxopiperidin-3-yl)-5-((6-(4-(4-(8-morpholinoquinoxalin-2-yl)-1H-pyrazol-1-yl)piperidin-1-yl)-6-oxohexyl)amino)isoindoline-1,3-dione], the IC50 was 0.1 to 1 µM in assay [1] (setting [7]), less than 0.01 µM in assay [1] (setting [8]), greater than 1 µM in assay [2] (setting [9]) and less than 0.01 µM in assay [2] (setting [10]).
`O=C1CCC(N2C(=O)c3ccc(NCCCCCC(=O)N4CCC(n5cc(-c6cnc7cccc(N8CCNCC8)c7n6)cn5)CC4)cc3C2=O)C(=O)N1` (centres unmarked) [GS-035, 2-(2,6-Dioxopiperidin-3-yl)-5-((6-oxo-6-(4-(4-(8-(piperazin-1-yl)quinoxalin-2-yl)-1H-pyrazol-1-yl)piperidin-1-yl)hexyl)amino)isoindoline-1,3-dione]: the IC50 in assay [1] (setting [7]) was 0.01 to 0.1 µM; in assay [1] (setting [8]), less than 0.01 µM; in assay [2] (setting [9]) it was greater than 1 µM; in assay [2] (setting [10]) it was less than 0.01 µM.
In the case of `CN1CCN(c2cccc3ncc(-c4cnn(C5CCN(C(=O)CCCCCNc6ccc7c(c6)C(=O)N(C6CCC(=O)NC6=O)C7=O)CC5)c4)nc23)CC1` (centres unmarked) [GS-036, 2-(2,6-Dioxopiperidin-3-yl)-5-((6-(4-(4-(8-(4-methylpiperazin-1-yl)quinoxalin-2-yl)-1H-pyrazol-1-yl)piperidin-1-yl)-6-oxohexyl)amino)isoindoline-1,3-dione], the IC50 in assay [1] (setting [7]) was greater than 1 µM; in assay [1] (setting [8]) it was less than 0.01 µM; in assay [2] (setting [9]), greater than 1 µM; in assay [2] (setting [10]) it was 0.01 to 0.1 µM.
Turning to `O=C1CCC(N2C(=O)c3ccc(NCCCCCC(=O)N4CCC(n5cc(-c6cnc7cccc(C8CCOCC8)c7n6)cn5)CC4)cc3C2=O)C(=O)N1` (centres unmarked) [GS-043, 2-(2,6-Dioxopiperidin-3-yl)-5-((6-oxo-6-(4-(4-(8-(tetrahydro-2H-pyran-4-yl)quinoxalin-2-yl)-1H-pyrazol-1-yl)piperidin-1-yl)hexyl)amino)isoindoline-1,3-dione], the IC50 is 0.01 to 0.1 µM in assay [1] (setting [7]), less than 0.01 µM in assay [1] (setting [8]), 0.01 to 0.1 µM in assay [2] (setting [9]) and less than 0.01 µM in assay [2] (setting [10]).
Consider `O=C1CCC(N2C(=O)c3ccc(NCCCCCC(=O)N4CCC(n5cc(-c6cnc7cccc(C8CCNCC8)c7n6)cn5)CC4)cc3C2=O)C(=O)N1` (centres unmarked) [GS-044, 2-(2,6-dioxopiperidin-3-yl)-5-((6-oxo-6-(4-(4-(8-(piperidin-4-yl)quinoxalin-2-yl)-1H-pyrazol-1-yl)piperidin-1-yl)hexyl)amino)isoindoline-1,3-dione], for which the IC50 is 0.01 to 0.1 µM in assay [1] (setting [7]), less than 0.01 µM in assay [1] (setting [8]), 0.01 to 0.1 µM in assay [2] (setting [9]) and less than 0.01 µM in assay [2] (setting [10]).
Regarding `CN1CCC(c2cccc3ncc(-c4cnn(C5CCN(C(=O)CCCCCNc6ccc7c(c6)C(=O)N(C6CCC(=O)NC6=O)C7=O)CC5)c4)nc23)CC1` (centres unmarked) [GS-045, 2-(2,6-Dioxopiperidin-3-yl)-5-((6-(4-(4-(8-(1-methylpiperidin-4-yl)quinoxalin-2-yl)-1H-pyrazol-1-yl)piperidin-1-yl)-6-oxohexyl)amino)isoindoline-1,3-dione], the IC50 in assay [1] (setting [7]) was 0.1 to 1 µM; in assay [1] (setting [8]), less than 0.01 µM; in assay [2] (setting [9]) it was greater than 1 µM; in assay [2] (setting [10]), less than 0.01 µM.
